Data set [1] is described as follows: The drug is tested on Bacteroides finegoldii strain: DSM17565 for biotransformation. The drug concentrations were measured before and after a 12-h incubation by liquid-chromatography-coupled mass spectrometry (LC–MS). The note with it: 2 µM.
The conditions of data set [2]: akkermansia muciniphila, 12 h, 2 µM.
Description: The drug is tested on Akkermansia muciniphila strain: ATCC BAA-835 for biotransformation. The drug concentrations were measured before and after a 12-h incubation by liquid-chromatography-coupled mass spectrometry (LC–MS)
Data set [3] in a line: The drug is tested on Bacteroides coprophilus strain: DSM18228 for biotransformation. The drug concentrations were measured before and after a 12-h incubation by liquid-chromatography-coupled mass spectrometry (LC–MS). The conditions noted are these: 2 µM.
Data set [4] is described as follows: The drug is tested on Clostridium symbiosum strain: ATCC14940 for biotransformation. The drug concentrations were measured before and after a 12-h incubation by liquid-chromatography-coupled mass spectrometry (LC–MS). The conditions noted are these: 2 µM.
A short description of data set [5]: The drug is tested on Coprococcus comes strain: ATCC27758 for biotransformation. The drug concentrations were measured before and after a 12-h incubation by liquid-chromatography-coupled mass spectrometry (LC–MS). Set-up: dose 2 uM, timepoint 0 vs 12 hours. The note with it: 2 µM. Format: ADME.
Data set [6] in a line: The drug is tested on Enterococcus faecalis strain: V583 for biotransformation. The drug concentrations were measured before and after a 12-h incubation by liquid-chromatography-coupled mass spectrometry (LC–MS). The conditions noted are these: 2 µM.
The conditions of data set [7]: bacteroides stercoris, 12 h, 2 µM.
Description: The drug is tested on Bacteroides stercoris strain: ATCC43183 for biotransformation. The drug concentrations were measured before and after a 12-h incubation by liquid-chromatography-coupled mass spectrometry (LC–MS)
A short description of data set [8]: The drug is tested on Anaerococcus hydrogenalis strain: DSM7454 for biotransformation. The drug concentrations were measured before and after a 12-h incubation by liquid-chromatography-coupled mass spectrometry (LC–MS). The note with it: 2 µM.
The nature of data set [9]: The drug is tested on Eubacterium hallii strain: DSM3353 for biotransformation. The drug concentrations were measured before and after a 12-h incubation by liquid-chromatography-coupled mass spectrometry (LC–MS). The conditions noted are these: anaerobutyricum hallii, 2 µM.
A short description of data set [10]: The drug is tested on Edwardsiella tarda strain: ATCC23685 for biotransformation. The drug concentrations were measured before and after a 12-h incubation by liquid-chromatography-coupled mass spectrometry (LC–MS). The note with it: 2 µM.
For data set [11] the following is noted: bacteroides fragilis, 12 h, 2 µM.
Description: The drug is tested on Bacteroides fragilis strain: DS-208 for biotransformation. The drug concentrations were measured before and after a 12-h incubation by liquid-chromatography-coupled mass spectrometry (LC–MS)
Data set [12] can be described thus: The drug is tested on Bacteroides fragilis strain: ATCC43859 for biotransformation. The drug concentrations were measured before and after a 12-h incubation by liquid-chromatography-coupled mass spectrometry (LC–MS). The conditions noted are these: 2 µM.
Data set [13] can be described thus: The drug is tested on Escherichia coli strain: BW25113 for biotransformation. The drug concentrations were measured before and after a 12-h incubation by liquid-chromatography-coupled mass spectrometry (LC–MS). The conditions noted are these: 2 µM.
For data set [14] the following is noted: bacteroides thetaiotaomicron, 12 h, 2 µM.
Description: The drug is tested on Bacteroides thetaiotaomicron strain: 3731 for biotransformation. The drug concentrations were measured before and after a 12-h incubation by liquid-chromatography-coupled mass spectrometry (LC–MS)
The nature of data set [15]: The drug is tested on Eubacterium ventriosum strain: ATCC27560 for biotransformation. The drug concentrations were measured before and after a 12-h incubation by liquid-chromatography-coupled mass spectrometry (LC–MS). Format: ADME. Details: dose 2 uM, timepoint 0 vs 12 hours. The conditions noted are these: 2 µM.
A short description of data set [16]: The drug is tested on Clostridium ramosum strain: DSM1402 for biotransformation. The drug concentrations were measured before and after a 12-h incubation by liquid-chromatography-coupled mass spectrometry (LC–MS). The conditions noted are these: thomasclavelia ramosa, 2 µM.
Data set [17] is described as follows: The drug is tested on Anaerotruncus colihominis strain: DSM17241 for biotransformation. The drug concentrations were measured before and after a 12-h incubation by liquid-chromatography-coupled mass spectrometry (LC–MS). The note with it: 2 µM.
The conditions of data set [18]: roseburia intestinalis, 12 h, 2 µM.
Description: The drug is tested on Roseburia intestinalis strain: L1-82 for biotransformation. The drug concentrations were measured before and after a 12-h incubation by liquid-chromatography-coupled mass spectrometry (LC–MS)
Data set [19] is described as follows: The drug is tested on Bifidobacterium ruminantium strain: fecal isolate for biotransformation. The drug concentrations were measured before and after a 12-h incubation by liquid-chromatography-coupled mass spectrometry (LC–MS). The conditions noted are these: 2 µM.
Data set [20] can be described thus: The drug is tested on Subdoligranulum variabile strain: DSM15176 for biotransformation. The drug concentrations were measured before and after a 12-h incubation by liquid-chromatography-coupled mass spectrometry (LC–MS). The conditions noted are these: 2 µM.

`C[C@@H]1C[C@H]2[C@@H]3CCC4=CC(=O)C=C[C@]4(C)[C@@]3(F)[C@@H](O)C[C@]2(C)[C@@]1(O)C(=O)CO` [DEXAMETHASONE]: the “Bacterial Biotransformation” value in [1], in data set [2], in [3], in [4], in [5] and in [6] was “Compound NOT metabolized” each time. The “Bacterial Biotransformation” value in data set [7] was “Compound metabolized”; in [8] it was “Compound NOT metabolized”; in [9], “Compound NOT metabolized”; in data set [10] it was “Compound NOT metabolized”; in [11], “Compound metabolized”; in data set [12] it was “Compound metabolized”. Also, the “Bacterial Biotransformation” value in data set [13] and in data set [14] was “Compound NOT metabolized” throughout.
For the molecule `CC(C)(C)NCC(O)COc1cccc2c1CC(O)C(O)C2` (centres undefined) [NADOLOL], the “Bacterial Biotransformation” value in data set [1], in data set [2], in data set [15], in data set [4], in data set [5] and in data set [6] was “Compound NOT metabolized” each time. Also, the “Bacterial Biotransformation” value in data set [7], in [16], in data set [8], in [9], in data set [17] and in data set [10] was “Compound NOT metabolized” in each case. In addition, the “Bacterial Biotransformation” value in [11], in [12] and in data set [18] was “Compound NOT metabolized” each time.
`C=C[C@H]1CN2CC[C@H]1C[C@H]2[C@H](O)c1ccnc2ccc(OC)cc12.C=C[C@H]1CN2CC[C@H]1C[C@H]2[C@H](O)c1ccnc2ccc(OC)cc12.O.O.O=S(=O)(O)O` [QUININE SULFATE]: the “Bacterial Biotransformation” value in data set [1], in data set [2], in data set [3], in [15], in data set [5] and in data set [6] was “Compound NOT metabolized” throughout. Moreover, the “Bacterial Biotransformation” value in data set [7], in [16], in data set [19], in [8], in [9] and in [17] was “Compound NOT metabolized” throughout. Besides, the “Bacterial Biotransformation” value in data set [10] and in [18] was “Compound NOT metabolized” each time.
For `CCCCC(=O)N(Cc1ccc(-c2ccccc2-c2nnn[nH]2)cc1)[C@H](C(=O)O)C(C)C`, the “Bacterial Biotransformation” value in data set [1] is on record as “Compound metabolized”; in data set [2], “Compound NOT metabolized”; in data set [3], “Compound NOT metabolized”; in [15] it was “Compound NOT metabolized”; in data set [4], “Compound NOT metabolized”; in data set [5], “Compound NOT metabolized”. Moreover, the “Bacterial Biotransformation” value in data set [6], in data set [7], in [16], in data set [19], in data set [8] and in data set [9] was “Compound NOT metabolized” throughout. Further, the “Bacterial Biotransformation” value in data set [17] is recorded as “Compound NOT metabolized”; in data set [10], “Compound NOT metabolized”; in data set [11] it was “Compound metabolized”; in data set [12], “Compound metabolized”; in data set [13], “Compound NOT metabolized”; in data set [14], “Compound metabolized”.
In the case of `Cc1cc(C)cc(OCC2CNC(=O)O2)c1` (centres undefined) [METAXALONE], the “Bacterial Biotransformation” value in data set [2], in data set [15], in [4], in data set [5], in [6] and in [19] was “Compound NOT metabolized” in each case. Also, the “Bacterial Biotransformation” value in data set [8] is listed as “Compound NOT metabolized”; in [9], “Compound NOT metabolized”; in data set [17], “Compound NOT metabolized”; in [12], “Compound metabolized”; in [14], “Compound NOT metabolized”; in data set [18], “Compound NOT metabolized”.
With `CC(C)(C)NC[C@H](O)COc1ccccc1C1CCCC1.CC(C)(C)NC[C@H](O)COc1ccccc1C1CCCC1.O=S(=O)(O)O` [PENBUTOLOL SULFATE], the “Bacterial Biotransformation” value in data set [1], in [15], in [4], in [5], in [6] and in data set [7] was “Compound NOT metabolized” each time. Also, the “Bacterial Biotransformation” value in data set [20], in [8], in [9], in data set [17], in data set [10] and in [13] was “Compound NOT metabolized” throughout. The “Bacterial Biotransformation” value in [14] and in data set [18] was “Compound NOT metabolized” in each case.
Turning to `COC(=O)[C@H]1[C@H]2C[C@@H]3c4[nH]c5cc(OC)ccc5c4CCN3C[C@H]2C[C@@H](OC(=O)c2cc(OC)c(OC)c(OC)c2)[C@@H]1OC` [RESERPINE], the “Bacterial Biotransformation” value in data set [2], in data set [3], in [5], in data set [6], in data set [7] and in data set [16] was “Compound NOT metabolized” each time. Besides, the “Bacterial Biotransformation” value in data set [19], in data set [8], in [9], in data set [17], in data set [10] and in [11] was “Compound NOT metabolized” in each case. Moreover, the “Bacterial Biotransformation” value in [12], in data set [13], in data set [14] and in data set [18] was “Compound NOT metabolized” each time.
As to `CCc1nc(N)nc(N)c1-c1ccc(Cl)cc1` [PYRIMETHAMINE], the “Bacterial Biotransformation” value in data set [1], in [3], in [15], in data set [4], in data set [5] and in [6] was “Compound NOT metabolized” in each case. Moreover, the “Bacterial Biotransformation” value in data set [7], in data set [19], in data set [8], in data set [9], in data set [17] and in data set [10] was “Compound NOT metabolized” throughout. Besides, the “Bacterial Biotransformation” value in [11], in data set [12], in data set [14] and in [18] was “Compound NOT metabolized” each time.

These data come from ChEMBL document CHEMBL5303573, “Mapping human microbiome drug metabolism by gut bacteria and their genes” (Nature, 2019).
